# Data from US7388006B2, “Non-steroidal progesting” (Bayer Schering Pharma AG, priority 2002, dated 2008).
# Tests used:
# [1] = system: rat mammary epithelium; test: Bioassay on proliferating/differentiating effects in the rat mammary epithelium (whole mount staining, terminal and alveolar endbuds); format: in vivo
# Excerpt: The object of this test is to evaluate the effect of progestins on the development of the mammary gland, in particular on the formation of terminal end-buds in the mammary gland in estrogen primed rats. Progestins together with other hormones (prolactin, estrogens, glucocorticoids, growth hormones etc.) induce proliferation and differentiation of the mammary glandular epithelium. In particular, they are involved in the morphogenesis of alveolar and terminal end buds, the sites of milk protein production and secretion into the ductal lumen.
# In order to determine the effects of test progestins according to the present invention, in particular compound ((+)-1), in mammary gland differentiation and proliferation, premature female rats (Wistar Han, SPF) are ovariectomized at the age of 21 days, 4 to 6 days before treatment start. The animals are treated for 6 days with standard estrogen (estrone (E1), 70 μg/kg) and the test progestin ((+)-1) (application volume: 0.1 ml/50 g body weight; vehicle: benzylbenzoate/castor oil (1+4 v/v); subcutaneous). Control groups are e.g.: vehicle, estrone without progestin, estradiol together with a known progestin, e.g. R5020 (promegestone). After the 6-day treatment the animals are killed with carbon dioxide.
# For the whole mount staining, animals are shaved in the left abdominal inguinal mammary region, which is cut from the body together with the skin. For the histological/immunohistochemical analyses the right abdominal inguinal mammary gland is cut from the body together with the connective-tissue adhered thereto and fixed in 3.7% formalin in PBS (phosphate buffer saline; without Ca^2+/Mg^2+).
# The preparations are fixed over night in alcohol-formalin according to the method of Tellyesniczky (see below). Then the mammary gland tissue and subcutis adhered thereto are stripped from the cutis and the preparations are again fixed over night. The further steps are as follows: ethanol 70%: 1.5 hours; acetone: 3×1.5 hours; acetone: over night; isopropanol: 1.5 hours; ethanol 96%: 2 hours; hematoxylin-iron: 3 hours; VE water: first rinse the preparations and then 2×0.5 hours; ethanol 70%: over night; ethanol 80%: 1.5 hours; ethanol 96%: 1.5 hours; isopropanol: 1.5 hours. The preparations are then moved to petri dishes and left in toluene for approximately 1 hour, i.e. until they have stopped to swim up. Then the preparations are treated with cedarwood oil (Merck, no. 1.06965). The incubation times above are minimum times and can be extended. In particular, incubation in ethanol 70% after fixation can be extended to at least 2.5 weeks.
# Preparation of the solutions necessary for the whole mount staining: • a) Alcohol-formalin according to Tellyesniczky: formaldehyde 37%: 81.8 ml, ethanol 70%: 1636 ml, glacial acetic acid (to be added shortly before use): 81.8 ml (total: 1800 ml). • b) Hematoxylin mother solution: Hematoxylin (Merck, no. 1.15938): 10 g, ethanol 96%: 100 ml. The solution must stand for 48 hours at 37° C. before use. […]
# By means of a 40-fold magnification, the terminal end buds near the nipple in direction of the tail are counted. […] For well-differentiated preparations this area may be reduced, with at least 250 buds to be counted. After counting, the number of end buds per 1 mm^2 is calculated.
# The number of terminal and alveolar endbuds is counted per mm^2 +/− standard deviation (SD). […]
# [2] = system: ovulation in adult female rats; test: In vivo test on progestogenic activity - ovulation inhibition (rat); settings: for Ovulation inhibition, result in words / Ovulation inhibition, factor compared to R5020: rat; for Ovulation inhibition, factor compared to R5020: potency relative to R5020
# Method: Before the treatment is started, two […] cycles of female rats (weight: 190 to 210 g) were monitored. Only animals having a regular 4 day-cycle are used for the subsequent test. Starting in the metoestrus, the test compound is administered for 4 days (day 1 to 4) and the cycle is controlled thereafter.
# For subcutaneous application, the test compounds are dissolved in benzyl benzoate/castor oil (1+9 v/v) and the daily dose is administered in a volume of 1 ml/kg body weight.
# For peroral application, the test compounds are suspended in a carrier liquid (85 mg Myrj^R in 100 ml 0.9% w/v NaCl solution) and the daily dose is administered in a volume of 2 ml/kg body weight.
# On day 4, after the application of the test compound, those animals having estrus or metoestrus are ovariectomized under ether anesthesia on one side. Preparations of the tubes are prepared and they are investigated for ova by means of microscope. On day 5 all animals (intact and partly ovariectomized) are killed with carbon dioxide, the tubes are preserved and analyzed in the same way. It is then determined, as a percentage, in how many animals ovulation was inhibited. […] Accordingly, this compound is to be regarded as having strong, progestational activity.
smiles,measurement,setting,value
"O=C1OCc2cc(NC(=O)C(O)(CC3(c4cc(C(F)(F)F)ccc4F)CC3)C(F)(F)F)ccc21 (single isomer, unassigned; (+)) [((+)-1), (+)-5-{2-hydroxy-3-[1-(2-fluoro-5-trifluoromethylphenyl)-cyclopropyl]-2-trifluoromethyl-propionylamino}-phthalide]",Threshold value for the induction of terminal and alveolar endbuds,[1]; FIG. 3,100 µg/kg/day
same,"Terminal and alveolar end bud formation, result in words",[1]; at doses where pregnancy is fully maintained,no effects on terminal and alveolar end bud formation can be observed
same,"Mammary gland, whole mount staining (rat) [threshold value]",[1]; induction of terminal and alveolar endbuds,0.1 mg/kg/day
same,"Mammary gland, whole mount staining, factor compared to R5020",[1]; median of three tests,ca. 1
same,Dissociation in favor of uterotropic activity (uterus versus mammary gland),[1]; pregnancy maintenance versus mammary gland,at least six fold
same,inhibition at 0.01 mg/kg,"[2]; Rattus norvegicus, dose 10 μg/kg, days 1 to 4, female rats",0%
same,inhibition at 0.03 mg/kg,"[2]; Rattus norvegicus, dose 30 μg/kg, days 1 to 4, female rats",14%
same,inhibition at 0.1 mg/kg,"[2]; Rattus norvegicus, dose 100 μg/kg, days 1 to 4, female rats",100%
same,"Ovulation inhibition, result in words",[2],at least as potent as the standard progestin
same,"Ovulation inhibition, factor compared to R5020",[2]; listed as ((+)-l),1 to 2
same,"Ovulation inhibition, factor compared to R5020",[2]; listed as ((+)−1),1-2
same,"Ovulation inhibition, result in words",[2]; listed as ((+)-l),efficiently inhibited ovulation
